Assay results: patent US12685777B2, “Compositions, systems, and methods for modulating a target gene” (The Board of Trustees of the Leland Stanford Junior …, priority 2022, dated 2026)
pEC50: −log10 of the molar value. Where “and” joins values, the source holds several entries; their conditions need not be identical. Equal values may be shown once. Read-outs that look alike come from different tables or passages of the source.

Key:
[1] = Measurement of serum half life (pharmacokinetics) in mice; assay type: in vivo
Protocol: Tests were performed to determine whether JWZ-7-7 is capable of maintaining sufficiently high blood levels for killing SCLC and DLBCL. Formulations for either IV or IP administration were prepared as follows:
• Concentration: 0.6 mg/ml • Composition: 5/5/90 DMSO/Tween80/saline • Dose: 5 μl/g body weight • Appearance: clear solution Formulation #2—Used for IP Animals • Concentration: 1 mg/ml • Composition: 5/5/90 DMSO/Tween80/saline • Dose: 10 μl/g body weight • Appearance: clear solution
After either IV or IP injection of 3 mice each with either 3 mg/Kg (IV) or 10 mg/Kg(IP), the levels of JWZ-7-7 were measured at the indicated intervals. The calculated T1/2 is 4.47 hours for IV injection and 5.63 hours for […].

[2] = system: primary human fibroblasts; assay: Cell viability of primary human fibroblasts; assay type: cell-based; conditions: 72 hours, read-out: EC50 of killing of fibroblasts
Protocol: Lymphoma and leukemia cells were cultured in RPMI-1640 (ATCC 30-2001)+10% FBS with antibiotics (100× PenStrep GIBCO #15140122). Primary human fibroblasts were obtained from ATCC (#CRL2522), cultured in DMEM+10% FBS with antibiotics and used at passages 3-5. Primary human tonsillar lymphocytes were a kind gift from M. M. Davis. Cells were routinely checked for mycoplasma and immediately checked upon suspicion. No cultures tested positive.
30,000 cells were plated in 100 μL media per well of a 96 well plate and treated with drug for indicated times and doses. A resazurin-based indicator of cell health (PrestoBlue, ThermoFisher #P50200) was added for 1.5 hours after which the fluorescence ratio at 560/590 nm was recorded. The background fluorescence was subtracted and the signal was normalized to DMSO-treated cells. EC50 measurements on cell lines were done with 4 biological repeats by separate cell passages maintained by 3 independent investigators. Fit of dose-response curves to data and statistical analysis was performed using drc package in R using the four-parameter log-logistic function.
After treatment, mouse tissue was harvested for RNA-seq and histology. […] Serum concentrations after 8 hours were -100 to 400-fold higher than therapeutic doses (FIG. 37, Panel C).

[3] = mouse, 3 mg/Kg IV, individual mice and Avg., 3 mg/kg
[4] = mouse, 3 mg/Kg IV, individual mice and Avg., 3 mg/kg, mean
[5] = mouse, 10 mg/Kg IP, individual mice and Avg., 10 mg/kg
[6] = mouse, 10 mg/Kg IP, individual mice and Avg., 10 mg/kg, mean

CNC(=O)COc1cc2cc(Nc3nc(N4CCC(C(=O)NCCCCCCCNC(=O)C[C@@H]5N=C(c6ccc(Cl)cc6)c6c(sc(C)c6C)-n6c(C)nnc65)CC4)ncc3Cl)cc(OC)c2n(C)c1=O [JWZ-7-7, (S)-1-(5-chloro-4-((8-methoxy-1-methyl-3-(2-(methylamino)-2-oxoethoxy)-2-oxo-1,2-dihydroquinolin-6-yl)amino)pyrimidin-2-yl)-N-(7-(2-(4-(4-chlorophenyl)-2,3,9-trimethyl-6H-thieno[3,2-f][1,2,4]triazolo[4,3-a][1,4]diazepin-6-yl)acetamido)heptyl)piperidine-4-carboxamide]
half-life ([1]; C57BL/6, mouse, serum, ip, 10 mg/kg, 10 mg/Kg IP, individual mice and Avg.): 5.63 h | Stability in serum ([1]; mouse): stable in serum | AUC% Extrap [1, 3]: 6.66% and 9.35% and 9.79% | AUCINF_obs [1, 3]: 797713 ng·min/mL and 444167 ng·min/mL and 988029 ng·min/mL | AUClast [1, 3]: 744580 min*ng/mL and 12.11 μM · hr and 402652 min*ng/mL and 6.55 μM · hr and 891309 min*ng/mL and 14.50 μM · hr | CI_obs [1, 3]: 0.228 L/h/kg and 0.408 L/h/kg and 0.18 L/h/kg | Cmax [1, 3]: 31.1 µg/mL and 14.5 µg/mL and 36.5 µg/mL | MRTINF_obs [1, 3]: 2.39 h and 2.14 h | T1/2 [1, 3]: 3.74 h and 3.93 h and 5.73 h | Vss_obs [1, 3]: 0.36 L/kg and 0.97 L/kg and 0.39 L/kg | AUC% Extrap [1, 4]: 8.60% | AUCINF_obs [1, 4]: 743303 ng·min/mL | AUClast [1, 4]: 679514 min*ng/mL and 11.06 μM · hr | CI_obs [1, 4]: 0.27 L/h/kg | Cmax [1, 4]: 27.367 µg/mL | MRTINF_obs [1, 4]: 2.04 h | Vss_obs [1, 4]: 0.57 L/kg | Cmax ([1]; mouse, 3 mg/Kg IV, individual mice and Avg., 3 mg/kg, mean, read-out: Cmax): 26.7 µM | Cmax ([1]; mouse, 3 mg/Kg IV, individual mice and Avg., 3 mg/kg, read-out: Cmax): 30.4 µM and 14.2 µM and 35.6 µM | AUC% Extrap [1, 5]: 42.22% and 42.00% and 38.85% | AUCINF_obs [1, 5]: 174254 ng·min/mL and 349182 ng·min/mL and 315593 ng·min/mL | AUClast [1, 5]: 100685 min*ng/mL and 1.64 μM · hr and 202511 min*ng/mL and 3.29 μM · hr and 192976 min*ng/mL and 3.14 μM · hr | Cl_obs [1, 5]: 3.44 L/h/kg and 1.72 L/h/kg and 1.9 L/h/kg | Cmax [1, 5]: 0.389 µg/mL and 0.805 µg/mL and 0.885 µg/mL | T1/2 [1, 5]: 5.48 h and 6.32 h and 5.08 h | Tmax [1, 5]: 0.50 h and 1.00 h | AUC% Extrap [1, 6]: 41.03% | AUCINF_obs [1, 6]: 279676 ng·min/mL | AUClast [1, 6]: 165391 min*ng/mL and 2.69 μM · hr | Cl_obs [1, 6]: 2.35 L/h/kg | Cmax [1, 6]: 0.693 µg/mL | Tmax [1, 6]: 0.53 h | Cmax ([1]; mouse, 10 mg/Kg IP, individual mice and Avg., 10 mg/kg, mean, read-out: Cmax): 0.68 µM | Cmax ([1]; mouse, 10 mg/Kg IP, individual mice and Avg., 10 mg/kg, read-out: Cmax): 0.38 µM and 0.79 µM and 0.86 µM | half-life ([1]; mouse, serum, iv, 3 mg/kg, 3 mg/Kg IV, individual mice and Avg.): 4.47 h | MRT inf ([1]; mouse, serum, iv, 3 mg/kg, 3 mg/Kg IV, individual mice and Avg., read-out: MRTINF_obs): 1.59 h | Tmax ([1]; mouse, serum, iv, 3 mg/kg, 3 mg/Kg IV, individual mice and Avg., read-out: Tmax): 0.08 h

CNC(=O)COc1cc2cc(Nc3nc(N4CCC(C(=O)NCCCCCCCNC(=O)C[C@@H]5N=C(c6ccc(Cl)cc6)c6c(sc(C)c6C)-n6c(C)nnc65)CC4)ncc3Cl)cc(OC)c2n(C)c1=O [TCIP1]
pEC50 [2]: ~6.33
